Where a name gives a salt, the structure may show the parent alone. Read-outs that look alike come from different tables or passages of the source.
Key:
[1] = system: NCI-H292 lung cancer cells; assay: FDA drug screening, complete media vs cholesterol-free media with simvastatin (TABLE 2); assay type: cell-based, human
[2] = system: NCI-H292 lung cancer cells; assay: FDA drug screening, complete media vs cholesterol-free media without statin (TABLE 1); assay type: cell-based, human
[3] = NCI-H292 cells, FDA drug library screen, cholesterol-free media with simvastatin 0.04 μM
[4] = NCI-H292 cells, FDA drug library screen, complete media
[5] = complete media minus cholesterol-free media + simvastatin, >0 enhanced anti-cancer activity, about 0 neutral, <0 antagonist
[6] = NCI-H292 cells, cholesterol-free media without statin, FDA drug library screen
[7] = NCI-H292 cells, complete media, FDA drug library screen
[8] = complete vs cholesterol-free media, >0 enhanced anti-cancer activity, about 0 neutral, <0 antagonist
[9] = NCI-H292 cells, cholesterol-free media with simvastatin 0.04 μM, […]
[10] = NCI-H292 cells, complete media, […]
[11] = complete media minus cholesterol-free media + simvastatin, […]
[12] = Complete minus Cholesterol-free, […]
[13] = NCI-H292 cells, FDA drug library screen, cholesterol-free media without statin
[14] = NCI-H292 cells, cholesterol-free media with simvastatin 0.04 μM, cell growth value in FDA drug screen
[15] = NCI-H292 cells, complete media, cell growth value in FDA drug screen
[16] = NCI-H292 cells, cholesterol-free media without statin
[17] = Complete minus Cholesterol-free, >0 enhanced anti-cancer activity, about 0 neutral, <0 antagonist
[18] = NCI-H292 cells, drug in cholesterol-free media with simvastatin 0.04 μM
[19] = NCI-H292 cells, drug in complete media
[20] = complete media vs cholesterol-free media + simvastatin (0.04 μM), >0 enhanced anti-cancer activity, about 0 neutral, <0 antagonist
[21] = Complete minus Cholesterol-free, greater than 0 enhanced anti-cancer activity, about 0 neutral, below 0 antagonist
[22] = NCI-H292 cells, cholesterol-free media with simvastatin 0.04 μM, FDA drug library screen (TABLE 2)
[23] = NCI-H292 cells, complete media, FDA drug library screen (TABLE 2)
[24] = complete media minus cholesterol-free media + simvastatin (0.04 μM), >0 enhanced anti-cancer activity, about 0 neutral, <0 antagonist
[25] = Complete minus Cholesterol-free, greater than 0 enhanced anti-cancer activity, about 0 neutral, below 0 antagonists
[26] = NCI-H292 cells in cholesterol-free media without statin
[27] = NCI-H292 cells in complete media

`CN1CCC(=C2c3ccccc3C=Cc3ccccc32)CC1` [Cyproheptadine (hydrochloride)] was tested, and the “Cholesterol-free media + simvastatin (0.04 μM)” value [1, 3] was 0.6096, the “Complete Media” value [1, 4] was 0.7817 and the Difference [1, 5] was 0.17. For the same molecule, the Cholesterol-free [2, 6] was 0.9826, the Complete [2, 7] was 1.57 and the Difference [2, 8] was 0.59.
For `O=C(Nc1ccccc1)c1ccccc1O` [Salicylanilide], the “Cholesterol-free media + simvastatin (0.04 μM)” value [1, 9] was 1.321, the “Complete Media” value [1, 10] was 1.359 and the Difference [1, 11] was 0.04. For the same molecule, the Difference [2, 12] was −0.19, the Cholesterol-free [2, 13] was 1.231 and the Complete [2, 4] was 1.046.
For `COC(=O)[C@H]1[C@H]2C[C@H]3c4[nH]c5ccccc5c4CCN3C[C@H]2CC[C@@H]1O` [Rauwolscine (hydrochloride)], the “Cholesterol-free media + simvastatin (0.04 μM)” value [1, 14] was 0.7455, the “Complete Media” value [1, 15] was 0.837 and the Difference [1, 5] was 0.09. The Cholesterol-free [2, 16] was 1.377, the Complete ([2]; NCI-H292 cells, complete media) was 0.9629 and the Difference ([2]; complete vs cholesterol-free media, greater than 0 enhanced anti-cancer activity, about 0 neutral, below 0 antagonists) was −0.41.
For `C[C@]12CC[C@@H]3c4ccc(O)cc4CC[C@H]3[C@@H]1CC[C@@H]2O` [Estradiol], the “Cholesterol-free media + simvastatin (0.04 μM)” value [1, 3] was 1.106, the “Complete Media” value [1, 4] was 1.409 and the Difference [1, 5] was 0.30. The Difference [2, 17] was 0.06, the Cholesterol-free [2, 6] was 0.707 and the Complete [2, 7] was 0.7678.
`CC1CNc2c(cccc2S(=O)(=O)N[C@@H](CCCNC(=N)N)C(=O)N2CC[C@@H](C)C[C@@H]2C(=O)O)C1` (some centres unmarked) [Argatroban (monohydrate)] was tested, and the “Cholesterol-free media + simvastatin (0.04 μM)” value [1, 18] was 1.179, the “Complete Media” value [1, 19] was 0.9367 and the Difference [1, 20] was −0.24. The Difference [2, 21] was −0.08 and the Cholesterol-free [2, 13] was 1.232.
For `Cc1c(OCC(F)(F)F)ccnc1C[S@@+]([O-])c1nc2ccccc2[nH]1` [(R)-Lansoprazole], the “Cholesterol-free media + simvastatin (0.04 μM)” value [1, 22] was 1.431, the “Complete Media” value [1, 23] was 1.389 and the Difference [1, 24] was −0.04. It also gave a Difference [2, 21] of −0.18, a Cholesterol-free [2, 13] of 0.9835 and a Complete [2, 4] of 0.8054.
`CC(C)NCC(O)COc1ccc(CC(N)=O)cc1` (centres unmarked) [Atenolol] was tested, and the “Cholesterol-free media + simvastatin (0.04 μM)” value [1, 14] was 0.9412, the “Complete Media” value [1, 15] was 1.006 and the Difference [1, 5] was 0.06. It also gave a Difference [2, 17] of −0.26 and a Cholesterol-free [2, 16] of 1.429.
In the case of `COc1cc2ncnc(Nc3ccc(F)c(Cl)c3)c2cc1NC(=O)/C=C/CN1CCCCC1` [Dacomitinib], the “Cholesterol-free media + simvastatin (0.04 μM)” value [1, 14] is reported as 0.3301, the “Complete Media” value [1, 15] is reported as 0.437 and the Difference [1, 5] is reported as 0.11. For the same molecule, the Difference [2, 21] was −0.12, the Cholesterol-free [2, 13] was 0.3597 and the Complete [2, 4] was 0.2371.
`CC(=O)/N=c1/sc(S(N)(=O)=O)nn1C` [Methazolamide] was tested, and the “Cholesterol-free media + simvastatin (0.04 μM)” value [1, 18] was 1.441, the “Complete Media” value [1, 19] was 1.241 and the Difference [1, 20] was −0.20. For the same molecule, the Difference [2, 25] was −0.57, the Cholesterol-free [2, 26] was 1.478 and the Complete [2, 27] was 0.9069.
In the case of `CC(Oc1c(Cl)cccc1Cl)C1=NCCN1` (centres unmarked) [Lofexidine (hydrochloride)], the “Cholesterol-free media + simvastatin (0.04 μM)” value [1, 14] is reported as 1.271, the “Complete Media” value [1, 15] is reported as 1.376 and the Difference [1, 5] is reported as 0.10. For the same molecule, the Difference [2, 25] was −0.50, the Cholesterol-free [2, 26] was 1.453 and the Complete [2, 27] was 0.95.
`CC(C)(C)NCC(O)c1ccccc1Cl` (centres unmarked) [Tulobuterol (hydrochloride)] was tested, and the “Cholesterol-free media + simvastatin (0.04 μM)” value [1, 3] was 1.041, the “Complete Media” value [1, 4] was 1.605 and the Difference [1, 5] was 0.56. For the same molecule, the Difference [2, 25] was −0.62 and the Complete [2, 27] was 0.9988.
With `CC[N+](C)(C)c1cccc(O)c1.[Cl-]` [Edrophonium (chloride)] the “Cholesterol-free media + simvastatin (0.04 μM)” value [1, 9] was 1.155, the “Complete Media” value [1, 10] was 1.199 and the Difference [1, 11] was 0.04. The Difference [2, 12] was −0.15, the Cholesterol-free [2, 13] was 1.134 and the Complete [2, 4] was 0.9821.
With `C[C@]12CCC(=O)C=C1CC[C@@H]1[C@@H]2[C@@H](O)C[C@@]2(C)[C@H]1CC[C@]2(O)C(=O)COC(=O)CCC1CCCC1` [Hydrocortisone cypionate] the “Cholesterol-free media + simvastatin (0.04 μM)” value [1] was 0.7228, the “Complete Media” value [1] was 0.7215 and the Difference [1] was 0.00. It also gave a Cholesterol-free [2] of 1.099, a Complete [2] of 0.6914 and a Difference [2] of −0.41.
In the case of `COc1nc(N)nc2c1ncn2[C@@H]1O[C@H](CO)[C@@H](O)[C@@H]1O` [Nelarabine], the “Cholesterol-free media + simvastatin (0.04 μM)” value [1, 22] is reported as 0.8366, the “Complete Media” value [1, 23] is reported as 0.8526 and the Difference [1, 24] is reported as 0.02. It also gave a Difference [2, 25] of −0.59, a Cholesterol-free [2, 26] of 1.291 and a Complete [2, 27] of 0.7049.
`O=[N+]([O-])c1cncn1CCN1CCOCC1` [Nimorazole] was tested, and the “Cholesterol-free media + simvastatin (0.04 μM)” value [1, 18] was 1.022, the “Complete Media” value [1, 19] was 0.8004 and the Difference [1, 20] was −0.22. For the same molecule, the Cholesterol-free [2, 6] was 0.576, the Complete [2, 7] was 0.9886 and the Difference [2, 8] was 0.41.
With `CN(C)CCC=C1c2ccccc2C=Cc2ccccc21` [Cyclobenzaprine (hydrochloride)] the “Cholesterol-free media + simvastatin (0.04 μM)” value [1, 3] was 1.036, the “Complete Media” value [1, 4] was 1.3 and the Difference [1, 5] was 0.26. It also gave a Cholesterol-free [2, 6] of 1.08, a Complete [2, 7] of 1.26 and a Difference [2, 8] of 0.18.
With `CC(C)COc1ccc(CNC(=O)N(Cc2ccc(F)cc2)C2CCN(C)CC2)cc1` [Pimavanserin] the “Cholesterol-free media + simvastatin (0.04 μM)” value [1, 3] was 0.8784, the “Complete Media” value [1, 4] was 1.133 and the Difference [1, 5] was 0.25. For the same molecule, the Cholesterol-free [2, 6] was 0.9868, the Complete [2, 7] was 1.126 and the Difference [2, 8] was 0.14.
For `CNC(=O)c1cc(Oc2ccc(NC(=O)Nc3ccc(Cl)c(C(F)(F)F)c3)cc2)ccn1` [Sorafenib], the “Cholesterol-free media + simvastatin (0.04 μM)” value [1, 3] was 0.7364, the “Complete Media” value [1, 4] was 0.915 and the Difference [1, 5] was 0.18. For the same molecule, the Cholesterol-free [2, 6] was 0.8045, the Complete [2, 7] was 1.015 and the Difference [2, 8] was 0.21.
`OC(CNCC(O)C1CCc2cc(F)ccc2O1)C1CCc2cc(F)ccc2O1` (centres unmarked) [Nebivolol (hydrochloride)] was tested, and the “Cholesterol-free media + simvastatin (0.04 μM)” value [1, 22] was 0.9013, the “Complete Media” value [1, 23] was 0.8774 and the Difference [1, 24] was −0.02. For the same molecule, the Cholesterol-free [2, 6] was 0.567 and the Difference [2, 8] was 0.61.
In the case of `C=CCCCCCCCCC(=O)O` [10-Undecenoic acid (zinc salt)], the “Cholesterol-free media + simvastatin (0.04 μM)” value ([1]; NCI-H292 cells, FDA library drug in cholesterol-free media with simvastatin 0.04 μM) is reported as 1.561, the “Complete Media” value ([1]; NCI-H292 cells, FDA library drug in complete media) is reported as 1.235 and the Difference [1, 20] is reported as −0.33. The Difference [2, 17] was −0.19, the Cholesterol-free [2, 16] was 1.263 and the Complete ([2]; NCI-H292 cells, complete media) was 1.076.
With `Cc1ncc(C[n+]2csc(CCO)c2C)c(N)n1` [Thiamine (hydrochloride)] the “Cholesterol-free media + simvastatin (0.04 μM)” value [1, 14] was 1.098, the “Complete Media” value [1, 15] was 1.117 and the Difference [1, 5] was 0.02. The Difference [2, 17] was −0.20, the Cholesterol-free [2, 16] was 1.324 and the Complete ([2]; NCI-H292 cells, complete media) was 1.125.
With `Cc1ccccc1C(=O)Nc1ccc(C(=O)N2CCCC(N(C)C)c3ccccc32)cc1` (centres unmarked) [Mozavaptan (hydrochloride)] the “Cholesterol-free media + simvastatin (0.04 μM)” value [1, 14] was 1.17, the “Complete Media” value [1, 15] was 1.196 and the Difference [1, 5] was 0.03. For the same molecule, the Difference [2, 25] was −0.56, the Cholesterol-free [2, 26] was 1.248 and the Complete [2, 27] was 0.6877.

Source: patent US20250144067A1, “PERSONALIZED STARVATION THERAPY FOR CANCER” (Faeth Therapeutics, Inc., priority 2021, published 2025)
